Patent publication US12365651B2, “Use of pirfenidone and derivatives for modulation of B lymphocyte activity and organ protection from acute tissue damage” (Washington University, priority 2017, dated 2025)
“And” between values parts separate entries of the source, which are not always exact repeats. Equal entries are not always repeated. Where two headings read alike, the source gives them in different places.

What was measured:
[1] = Plasma pharmacokinetics after IV or PO administration; assay type: in vivo, SD Rat; conditions: SD Rat
Procedure: Pirfenidone and Pegyonde-6 were administered at equimolar concentrations to rats IV or per os (PO) and serum concentrations measured at different time points to measure pharmacokinetic parameters. The drugs were solubilized in 5% Alcohol+20% PEG 300 in saline.

[2] = tested on: CD19+CD11b+ and CD19+CD11b− cardiac lymphocytes; assay: Transcriptional profiling (RNAseq, KEGG) of sorted cardiac B lymphocytes; assay type: in vivo, mouse; conditions: DTR+PFD hearts vs naïve
Source text: To gain insight into the mechanism(s) responsible for the immunomodulatory effects of Pirfenidone, we performed transcriptional profiling on CD19+CD11b+ and CD19+CD11b− cardiac lymphocytes that were FACS sorted from naïve, DT-injured mice fed normal chow, and DT-injured mice treated with Pirfenidone chow. […]
We performed transcriptional profiling of cardiac lymphocytes that were isolated from naïve and DTR injured hearts in the presence and absence of Pirfenidone. […] Single-end, 50 bp reads were obtained on an Illumina HiSeq 3000 and aligned to the IIlumina iGenomes GRCm38_Ensembl release of the mouse transcriptome using Tophat2.1(41), yielding an average of 1.8×107 aligned reads per sample. Gene-level quantitation was performed using HTSeq 2(42). mRNAs were included in downstream analyses if present in all biological replicates in any of the 6 experimental groups (CD19+CD11b+ and CD19+CD11b− from WT, DT and DT+PFD) at an abundance of at least 1 read per million. […] KEGG pathways within the following 3 categories were analyzed: signal transduction (3.2), signaling molecules and interactions (3.3), and immune system (5.1).

[3] = IV 40 mg/kg, individual rats 1-3, 40 mg/kg
[4] = PO 40 mg/kg, individual rats 7-9, 40 mg/kg

## Cc1ccc(=O)n(-c2ccccc2)c1 [Pirfenidone, 5 methyl-1-phenyl-2-[H] pyridone]
[1]; IV 40 mg/kg
  AUMC0-t, Mean: 11482 h*h*ng/mL
  AUMC0-∞, Mean: 11490 h*h*ng/mL
  CL(/F), Mean: 28.87 mL/min/kg
  Vss (/F), Mean: 0.828 L/kg
[1]; IV 40 mg/kg, 0.083 h, individual rats 1-3, 40 mg/kg
  Plasma concentrations of Pirfenidone: 34700 ng/mL and 33600 ng/mL
[1]; IV 40 mg/kg, 0.25 h, individual rats 1-3, 40 mg/kg
  Plasma concentrations of Pirfenidone: 29300 ng/mL and 25600 ng/mL
[1]; IV 40 mg/kg, 0.5 h, individual rats 1-3, 40 mg/kg
  Plasma concentrations of Pirfenidone: 19800 ng/mL and 16100 ng/mL
[1]; IV 40 mg/kg, 1 h, individual rats 1-3, 40 mg/kg
  Plasma concentrations of Pirfenidone: 6130 ng/mL and 9860 ng/mL and 4840 ng/mL
[1]; IV 40 mg/kg, 2 h, individual rats 1-3, 40 mg/kg
  Plasma concentrations of Pirfenidone: 394 ng/mL and 712 ng/mL and 225 ng/mL
[1]; IV 40 mg/kg, 4 h, individual rats 1-3, 40 mg/kg
  Plasma concentrations of Pirfenidone: 6.12 ng/mL and 3.57 ng/mL
[1]; IV 40 mg/kg, 8 h, individual rats 1-3, 40 mg/kg
  Plasma concentrations of Pirfenidone: BLOQ (Below lower limit of quantification (1 ng/mL))
[1]; IV 40 mg/kg, 24 h, individual rats 1-3
  Plasma concentrations of Pirfenidone: BLOQ (Below lower limit of quantification (1 ng/mL))
[1]; [3]
  AUC0-t: 27907 ng·h/mL and 21142 ng·h/mL
  AUC0-∞: 27910 ng·h/mL and 21144 ng·h/mL
  AUMC0-t: 10270 h*h*ng/mL and 15155 h*h*ng/mL and 9021 h*h*ng/mL
  AUMC0-∞: 10277.2 h*h*ng/mL and 15166.3 h*h*ng/mL and 9027.6 h*h*ng/mL
  CL(/F): 31.17 mL/min/kg and 23.88 mL/min/kg and 31.53 mL/min/kg
  Cmax: 34700 ng/mL and 33600 ng/mL
  MRTINF: 32.6 min and 25.6 min
  T1/2: 17 min and 17.3 min
  Vss (/F): 0.898 L/kg and 0.779 L/kg and 0.808 L/kg
[1]; PO 40 mg/kg
  AUMC0-∞, Mean: 15669 h*h*ng/mL
[1]; PO 40 mg/kg, 0.25 h, individual rats 7-9, 40 mg/kg
  Plasma concentrations of Pirfenidone: 8330 ng/mL and 9540 ng/mL
[1]; PO 40 mg/kg, 0.5 h, individual rats 7-9, 40 mg/kg
  Plasma concentrations of Pirfenidone: 6700 ng/mL and 8820 ng/mL
[1]; PO 40 mg/kg, 1 h, individual rats 7-9, 40 mg/kg
  Plasma concentrations of Pirfenidone: 3540 ng/mL and 3570 ng/mL
[1]; PO 40 mg/kg, 2 h, individual rats 7-9, 40 mg/kg
  Plasma concentrations of Pirfenidone: 2000 ng/mL and 2140 ng/mL
[1]; PO 40 mg/kg, 4 h, individual rats 7-9, 40 mg/kg
  Plasma concentrations of Pirfenidone: 7.72 ng/mL and 830 ng/mL and 126 ng/mL
[1]; PO 40 mg/kg, 24 h, individual rats 7-9
  Plasma concentrations of Pirfenidone: BLOQ (Below lower limit of quantification (1 ng/mL))
[1]; [4]
  AUC0-t: 12787 ng·h/mL and 12172 ng·h/mL
  AUC0-∞: 12820 ng·h/mL and 12353 ng·h/mL
  AUMC0-t: 9588 h*h*ng/mL and 20769 h*h*ng/mL and 14572 h*h*ng/mL
  AUMC0-∞: 9604 h*h*ng/mL and 21076 h*h*ng/mL and 16326 h*h*ng/mL
  Cmax: 8330 ng/mL and 9540 ng/mL
  MRTINF: 98.64 min and 79.32 min
  T1/2: 18.8 min and 57.5 min and 70.38 min
[1]; Sprague-Dawley, plasma, IV 40 mg/kg, read-out: Tmax, Mean
  Tmax: 4.98 min
[1]; Sprague-Dawley, rat, plasma, iv, 40 mg/kg, IV 40 mg/kg, 0.083 h, individual rats 1-3, read-out: Plasma concentrations of Pirfenidone
  concentration at 0.083 h: 32900 ng/mL
[1]; Sprague-Dawley, rat, plasma, iv, 40 mg/kg, IV 40 mg/kg, 0.083 h, read-out: Plasma concentrations of Pirfenidone, Mean
  concentration at 0.083 h: 33700 ng/mL
[1]; Sprague-Dawley, rat, plasma, iv, 40 mg/kg, IV 40 mg/kg, 0.25 h, individual rats 1-3, read-out: Plasma concentrations of Pirfenidone
  concentration at 0.25 h: 21400 ng/mL
[1]; Sprague-Dawley, rat, plasma, iv, 40 mg/kg, IV 40 mg/kg, 0.25 h, read-out: Plasma concentrations of Pirfenidone, Mean
  concentration at 0.25 h: 25400 ng/mL
[1]; Sprague-Dawley, rat, plasma, iv, 40 mg/kg, IV 40 mg/kg, 0.5 h, individual rats 1-3, read-out: Plasma concentrations of Pirfenidone
  concentration at 0.5 h: 15800 ng/mL
[1]; Sprague-Dawley, rat, plasma, iv, 40 mg/kg, IV 40 mg/kg, 0.5 h, read-out: Plasma concentrations of Pirfenidone, Mean
  concentration at 0.5 h: 17200 ng/mL
[1]; Sprague-Dawley, rat, plasma, iv, 40 mg/kg, IV 40 mg/kg, 1 h, read-out: Plasma concentrations of Pirfenidone, Mean
  concentration at 1 h: 6940 ng/mL
[1]; Sprague-Dawley, rat, plasma, iv, 40 mg/kg, IV 40 mg/kg, 2 h, read-out: Plasma concentrations of Pirfenidone, Mean
  concentration at 2 h: 444 ng/mL
[1]; Sprague-Dawley, rat, plasma, iv, 40 mg/kg, IV 40 mg/kg, 4 h, individual rats 1-3, read-out: Plasma concentrations of Pirfenidone
  concentration at 4 h: 4.27 ng/mL
[1]; Sprague-Dawley, rat, plasma, iv, 40 mg/kg, IV 40 mg/kg, 4 h, read-out: Plasma concentrations of Pirfenidone, Mean
  concentration at 4 h: 4.7 ng/mL
[1]; Sprague-Dawley, rat, plasma, iv, 40 mg/kg, IV 40 mg/kg, 8 h, individual rats 1-3, read-out: Plasma concentrations of Pirfenidone
  concentration at 8 h: 1.22 ng/mL
[1]; Sprague-Dawley, rat, plasma, iv, 40 mg/kg, IV 40 mg/kg, 8 h, read-out: Plasma concentrations of Pirfenidone, Mean
  concentration at 8 h: 1.22 ng/mL
[1]; Sprague-Dawley, rat, plasma, iv, 40 mg/kg, IV 40 mg/kg, read-out: AUC0-t, Mean
  AUC0-t: 23500 ng·h/mL
[1]; Sprague-Dawley, rat, plasma, iv, 40 mg/kg, IV 40 mg/kg, read-out: AUC0-∞, Mean
  AUC(0-inf): 23500 ng·h/mL
[1]; Sprague-Dawley, rat, plasma, iv, 40 mg/kg, IV 40 mg/kg, read-out: Cmax, Mean
  Cmax: 33700 ng/mL
[1]; Sprague-Dawley, rat, plasma, iv, 40 mg/kg, IV 40 mg/kg, read-out: MRTINF, Mean
  MRT inf: 29 min
[1]; Sprague-Dawley, rat, plasma, iv, 40 mg/kg, IV 40 mg/kg, read-out: T1/2, Mean (converted)
  half-life: 21.4 min
[1]; Sprague-Dawley, rat, plasma, po, 40 mg/kg, PO 40 mg/kg, 0.25 h, individual rats 7-9, read-out: Plasma concentrations of Pirfenidone
  concentration at 0.25 h: 9130 ng/mL
[1]; Sprague-Dawley, rat, plasma, po, 40 mg/kg, PO 40 mg/kg, 0.25 h, read-out: Plasma concentrations of Pirfenidone, Mean
  concentration at 0.25 h: 9000 ng/mL
[1]; Sprague-Dawley, rat, plasma, po, 40 mg/kg, PO 40 mg/kg, 0.5 h, individual rats 7-9, read-out: Plasma concentrations of Pirfenidone
  concentration at 0.5 h: 8450 ng/mL
[1]; Sprague-Dawley, rat, plasma, po, 40 mg/kg, PO 40 mg/kg, 0.5 h, read-out: Plasma concentrations of Pirfenidone, Mean
  concentration at 0.5 h: 7990 ng/mL
[1]; Sprague-Dawley, rat, plasma, po, 40 mg/kg, PO 40 mg/kg, 1 h, individual rats 7-9, read-out: Plasma concentrations of Pirfenidone
  concentration at 1 h: 5110 ng/mL
[1]; Sprague-Dawley, rat, plasma, po, 40 mg/kg, PO 40 mg/kg, 1 h, read-out: Plasma concentrations of Pirfenidone, Mean
  concentration at 1 h: 4070 ng/mL
[1]; Sprague-Dawley, rat, plasma, po, 40 mg/kg, PO 40 mg/kg, 2 h, individual rats 7-9, read-out: Plasma concentrations of Pirfenidone
  concentration at 2 h: 1190 ng/mL
[1]; Sprague-Dawley, rat, plasma, po, 40 mg/kg, PO 40 mg/kg, 2 h, read-out: Plasma concentrations of Pirfenidone, Mean
  concentration at 2 h: 1780 ng/mL
[1]; Sprague-Dawley, rat, plasma, po, 40 mg/kg, PO 40 mg/kg, 4 h, read-out: Plasma concentrations of Pirfenidone, Mean
  concentration at 4 h: 321 ng/mL
[1]; Sprague-Dawley, rat, plasma, po, 40 mg/kg, PO 40 mg/kg, 8 h, read-out: Plasma concentrations of Pirfenidone, Mean
  concentration at 8 h: 65.3 ng/mL
[1]; Sprague-Dawley, rat, plasma, po, 40 mg/kg, PO 40 mg/kg, individual rats 7-9, read-out: Cmax
  Cmax: 9130 ng/mL
[1]; Sprague-Dawley, rat, plasma, po, 40 mg/kg, PO 40 mg/kg, individual rats 7-9, read-out: MRTINF
  MRT inf: 52 min
[1]; Sprague-Dawley, rat, serum, iv, 40 mg/kg, IV 40 mg/kg, individual rats 1-3, read-out: AUC0-t
  AUC0-t: 21400 ng·h/mL
[1]; Sprague-Dawley, rat, serum, iv, 40 mg/kg, IV 40 mg/kg, individual rats 1-3, read-out: AUC0-∞
  AUC(0-inf): 21400 ng·h/mL
[1]; Sprague-Dawley, rat, serum, iv, 40 mg/kg, IV 40 mg/kg, individual rats 1-3, read-out: Cmax
  Cmax: 32900 ng/mL
[1]; Sprague-Dawley, rat, serum, iv, 40 mg/kg, IV 40 mg/kg, individual rats 1-3, read-out: MRTINF
  MRT inf: 28.8 min
[1]; Sprague-Dawley, rat, serum, iv, 40 mg/kg, IV 40 mg/kg, individual rats 1-3, read-out: T1/2 (converted)
  half-life: 30 min
[1]; Sprague-Dawley, rat, serum, po, 40 mg/kg, PO 40 mg/kg, individual rats 7-9, read-out: AUC0-t
  AUC0-t: 11100 ng·h/mL
[1]; Sprague-Dawley, rat, serum, po, 40 mg/kg, PO 40 mg/kg, individual rats 7-9, read-out: AUC0-∞
  AUC(0-inf): 11100 ng·h/mL
[1]; Sprague-Dawley, rat, serum, po, 40 mg/kg, PO 40 mg/kg, read-out: AUC0-t, Mean
  AUC0-t: 12000 ng·h/mL
[1]; Sprague-Dawley, rat, serum, po, 40 mg/kg, PO 40 mg/kg, read-out: AUC0-∞, Mean
  AUC(0-inf): 12100 ng·h/mL
[1]; Sprague-Dawley, rat, serum, po, 40 mg/kg, PO 40 mg/kg, read-out: Cmax, Mean
  Cmax: 9000 ng/mL
[1]; Sprague-Dawley, rat, serum, po, 40 mg/kg, PO 40 mg/kg, read-out: MRTINF, Mean
  MRT inf: 76.8 min
[1]; Sprague-Dawley, rat, serum, po, 40 mg/kg, PO 40 mg/kg, read-out: T1/2, Mean (converted)
  half-life: 48.9 min
[1]; Sprague-Dawley, serum, IV 40 mg/kg, individual rats 1-3, read-out: Tmax
  Tmax: 4.98 min
[1]; Sprague-Dawley, serum, PO 40 mg/kg vs IV 40 mg/kg
  bioavailability: 22.6%
[1]; Sprague-Dawley, serum, PO 40 mg/kg, read-out: Tmax, Mean
  Tmax: 15 min
[2]; 6 pathways
  KEGG pathways enriched after DT injury in CD19+CD11b+ lymphocytes: not activated
[2]; with the exception of the hematopoietic cell lineage pathway
  KEGG pathways enriched after DT injury in CD19+CD11b− lymphocytes: none of these pathways was significantly enriched
